Laboratory results reported in patent publication US20090069324A1, “CHEMICAL INHIBITORS OF BFL-1 AND RELATED METHODS” (The Burnham Institute, priority 2007, published 2009).

Experiments:
Bfl-1 = biological target: T1, Bfl-1 (Homo sapiens, UniProt Q16548); assay: Bfl-1 TR-FRET assay (FITC-Bid, Tb-anti-GST antibody); format: binding; conditions: Tables 3-5; read-out: Bfl-1 TR FRET IC50
T1 construct: lacking their C-terminal transmembrane domains (approximately last 20 amino-acids); made in house; host or cells: XL-1 Blue cells (E. coli), pGEX 4T-1
T1 sequence (Q16548 1-155 limits assumed): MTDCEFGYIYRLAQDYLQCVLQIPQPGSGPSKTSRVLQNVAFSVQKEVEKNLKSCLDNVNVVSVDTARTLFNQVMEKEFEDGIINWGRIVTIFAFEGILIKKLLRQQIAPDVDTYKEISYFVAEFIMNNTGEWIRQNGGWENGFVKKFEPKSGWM
Procedure: TR-FRET assay. For confirmation of FPA results, a TR-FRET assay utilizing terbium- (Tb-) labeled anti-GST antibody (Th-Ab) was developed. […] The reaction mixture was preincubated for 1 h, and TR-fluorescence (TRF) was measured on an M5 plate reader (Molecular Devices) using excitation at 340 nm and emission at […]. The measurements were averaged from 5 readings during 1 ms after an initial delay 0.1 ms. TR-FRET signal was calculated as the ratio of TR-Fluorescence at 520 nm to TR-Fluorescence at […].
For Bfl-1 TR-FRET assays, Bfl-1 protein and FITC-Bid peptide (FITC-Ahx-[…]) (SEQ ID NO: 1) were utilized. Terbium-anti-GST antibody (Tb-anti-GST Ab) was obtained from Invitrogen (San Diego Calif.). The assay buffer contained 25 mM Bis-Tris, pH 7.0, 1 mM TCEP, and 0.005% Tween 20. The Tb-Ab buffer contained 2.5 nM Tb-anti-GST antibody in assay buffer. The Bfl-1/Th-Ab working solution contained 5 nM Bfl-1 in Th-Ab assay buffer. The solution was prepared fresh and kept on ice prior to use. The FITC-Bid working solution contained 5.6 nM FITC-Bid in assay buffer.
For the Bfl-1 TR-FRET dose-response screening protocol, dose-response curves contained 10 concentrations of compounds obtained using 2-fold serial dilution. Compounds were serially diluted in 100% DMSO, and then diluted with water to 10% final DMSO concentration. A 4 μl aliquot of compounds in 10% DMSO was transferred into columns 3-22 of Greiner 384-well white small-volume plates. Columns 1-2 and 23-24 contained 4 μL of 10% DMSO.
Columns 1-2 were reserved for positive controls, and 8 μL of Th-Ab buffer was added using a WellMate bulk dispenser (Matrix). An aliquot of 8 μL of Bfl-1/Th-Ab working solution was added to columns 3-24 of Greiner 384 well white plates using a WellMate bulk dispenser (Matrix). Columns 23-24 represented negative control wells. Plates were incubated for 1 h at 4° C. An 8 μL aliquot of freshly prepared FITC-Bid working solution was added to the whole plate using WellMate bulk dispenser (Matrix). Plates were incubated for 4 h at room temperature protected from direct light. Fluorescence was measured on the M5 plate reader (excitation: 340 nm, emission: 490 and 520 nm, cutoff: 475 and 515 nm, respectively) in Time Resolved (TR) mode with signal integrated for 1 ms after initial delay of 0.1 ms. TR-FRET signal was calculated as the ratio of TR-Fluorescence at 520 nm to TR-Fluorescence at 490 nm. Data analysis was performed using a sigmoidal dose-response equation through non-linear regression.

Microsomal stability = format: in vitro ADME; conditions: rat liver microsomes, 37.5° C.
Procedure: (§1) CID-779754 (MLS-0067130) has a metabolic half life of >60 min in the presence of rat liver microsomes when incubated at 37.5° C. (FIG. 6A), with 64% of the compound remaining at 1 hour. The plasma stability of CID-779754 is also good, with 79% remaining after incubating at 37.5° C. for 1 hour in fresh rat plasma (FIG. 6B).

Solubility = conditions: aqueous buffer
Procedure: Compounds were screened for inhibitory activity of Bfl-1 essentially as described in Example 1, and including a 1 h incubation of Bfl-1 in the presence of compounds and a 4 h incubation after the subsequent addition of the fluorescent probe. […] The assay was screened against the entire NIH small molecule library, which at the time consisted of 65,000 compounds. […] Controls included an “artifact” plate on which a GAPDH assay was performed to check selectivity, and a solubility plate on which a solubility assay was performed to test solubility.

Plasma stability = format: in vitro ADME; conditions: fresh rat plasma, 37.5° C.
Procedure: as §1

human mast cells = assay: Primary mast cell survival assay (activation-induced survival); format: cell-based
Procedure: To validate the biological activity of the probe in a cellular readout that is Bfl-1 dependent, CID-779754 was tested in an assay measuring the effect of compounds on primary mast cell survival.
The effect of a Bfl-1 inhibitor at, for example, 1 μM is tested on CBMCs derived from, for example, 12 different individuals. CBMCs are activated by aggregation of the high-affinity IgE-receptor (FcεRI)±CID-779754. Mast cells are cultured with or without IgE crosslinking (IgECL) agent, without or with Bfl-1 inhibitor. The percentage cell survival upon IgE-receptor activation are compared to cells not activated and the delta survival is calculated. Cell survival is measured by LDH release and data were presented as % difference between cells cultured with or without IgECL.

PAMPA assay = format: in vitro ADME
[1] = system: cord blood derived human mast cells (CBMCs); assay: LDH release cytotoxicity assay; format: cell-based
Procedure: To investigate whether a Bfl-1 inhibitor is cytotoxic to cord blood derived human mast cells (CBMCs), a […] assay based on the measurement of lactate dehydrogenase (LDH) activity is used. CBMC are cultured with various concentrations of the Bfl-1 inhibitor, and LDH release into the culture supernatant is measured. […] The positive control in FIG. 8 is a control included in the LDH kit. Thus, CID-779754 is not cytotoxic to in vitro developed human mast cells.

## CN(C)C1=C(Cl)C(=O)N(c2ccc(Cl)c(Cl)c2)C1=O [CID-779754, 3-chloro-1-(3,4-dichlorophenyl)-4-(dimethylamino)-1H-pyrrole-2,5-dione]
Bfl-1
  IC50: 570 nM
Microsomal stability
  compound remaining at 1 hour: 64%
Microsomal stability; read-out: metabolic half life
  half-life: > 1 h
Solubility
  solubility: ≤ 100 µM
Plasma stability
  remaining after incubating for 1 hour: 79%
Human mast cells
  effect on activation-induced survival of mast cells: inhibited the activation-induced survival of human mast cells
PAMPA assay; PAMPA
  log Pe: −4.2
PAMPA assay; correlated from PAMPA log Pe
  predicted human GI absorption: > 50%
[1]; 0.1-100 μM, n=4 donors
  cytotoxicity (LDH release): no cytoxicity
[1]; normal human cells
  toxicity to normal human cells: not toxic to normal human cells
